These results are taken from patent US10285983B2, “3-(1H-pyrrolo[2,3-B]pyridin-2-yl)-1H-pyrazolo[3,4-B] pyridines and therapeutic uses thereof” (Samumed, LLC, priority 2015, dated 2019).

Experiment [1] concerns Wnt activity (Sp5-Luc reporter, SW480 colon carcinoma cells). As to the kind of experiment: Wnt activity screening assay, Sp5-Luc reporter gene in SW480 cells. In kind it is cell-based. Particulars: Homo sapiens; for inhibition at 10 µM: given for EC50 >10 μM, read-out: percent inhibition at 10 μM; for EC50: overnight incubation. Summed up: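 SW480 colon carcinoma cells stably expressing firefly luciferase under a human Sp5 promoter (eight TCF/LEF sites), plated in 1% FBS medium. 10-point 1:3 dilutions from 10 μM, 0.1% DMSO final, overnight at 37 °C; luminescence normalized to DMSO, four-parameter fit for EC50, % inhibition at 10 μM if EC50 >10 μM.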
(Reporter assays use an easily measured gene product as a stand-in for the process of interest.)

The test system of experiment [2] is primary human mesenchymal stem cells (hMSCs). Put plainly: Chondrogenesis induction in hMSCs (nodule count, Rhodamine B/Nile Red). In kind it is cell-based. The note with it: 144 h, 6 days; for EC50: concentration required to induce 50% levels of chondrogenesis vs TGF-β3, read-out: Conc (nM) of 50% TGF-β3 activity; for Emax: relative to TGF-β3 (10 ng/mL) positive control, read-out: Max. Activity as % TGF-β3 activity. As for the experimental part:
Representative compounds were screened using primary human mesenchymal stem cells (hMSCs) to determine their ability to induce chondrogenesis (process by which cartilage is developed).
Primary human mesenchymal stem cells (hMSCs) were purchased from Lonza (Walkersville, Md.) and expanded in Mesenchymal Stem Cell Growth Media (Lonza). Cells between passage 3 and 6 were used for the experiments.
Each compound was dissolved in DMSO as a 10 mM stock and used to prepare compound source plates. Serial dilution (1:3, 6-point dose-response curves from 2700 nM to 10 nM) and compound transfer was performed using the ECHO 550 (Labcyte, Sunnyvale, Calif.) into 96-well clear bottom assay plates (Greiner Bio-One) with appropriate DMSO backfill for a final DMSO concentration of 0.03%. hMSCs were plated at 20,000 cells/well in 250 μL/well Incomplete Chondrogenic Induction Medium (Lonza; DMEM, dexamethasone, ascorbate, insulin-transferrin-selenium [ITS supplement], gentamycin-amphotericin [GA-1000], sodium pyruvate, proline and L-glutamine). TGF-β3 (10 ng/mL) was used as a positive control for differentiation while negative control wells were treated with 75 nL DMSO for normalization and calculating EC50 values. Cells were incubated at 37° C. and 5% CO2 for 6 days. To image chondrogenic nodules, the cells were fixed using 4% formaldehyde (Electron Microscopy Sciences), and stained with 2 μg/mL Rhodamine B (Sigma-Aldrich) and 20 μM Nile Red (Sigma-Aldrich) [Johnson K., et. al, A Stem Cell-Based Approach to Cartilage Repair, Science, (2012), 336(6082), 717-721]. The nodules imaged (4 images per well at 4× magnification) by excitation at 531 nm and emission at 625 nm and quantified using the CellInsight CX5 (Thermo Scientific). Number of nodules in each well was normalized to the average of 3 DMSO treated wells on the same plate using Excel (Microsoft Inc.). The normalized averages (fold change over DMSO) of 3 replicate wells for each compound concentration were calculated. Due to solubility limitations of some of the compounds, curve fitting was incomplete leading to inaccurate EC50 determinations.
Using TGF-β3 as a positive control, the concentration of representative compounds required to induce 50% levels of chondrogenesis is reported. In addition, the maximum activity of each compound and the respective dose that each compound reached maximum chondrogenesis activity is reported.

The term inhibition denotes the relative decrease from the control value, in per cent. Consider `c1ccc(CNCc2cncc(-c3cnc4[nH]nc(-c5cc6c(-c7ccncc7)ccnc6[nH]5)c4c3)c2)cc1` [Compound 136, N-Benzyl-1-(5-(3-(4-(pyridin-4-yl)-1H-pyrrolo[2,3-b]pyridin-2-yl)-1H-pyrazolo[3,4-b]pyridin-5-yl)pyridin-3-yl)methanamine], for which, in experiment [1], the inhibition at 10 µM was 0% and the EC50 is greater than 10 µM. Besides, in experiment [2], the EC50 came out at 2700 nM and the Emax was determined as 93%.
For `Cc1ccncc1-c1cnc2[nH]nc(-c3cc4c(-c5ccc(F)cc5)ccnc4[nH]3)c2c1` [Compound 33, 3-(4-(4-Fluorophenyl)-1H-pyrrolo[2,3-b]pyridin-2-yl)-5-(4-methylpyridin-3-yl)-1H-pyrazolo[3,4-b]pyridine] the same measures were 2.7%, greater than 10 µM, 900 nM and 108%.
For `CCNCc1cncc(-c2cnc3[nH]nc(-c4cc5c(-c6ccccc6F)ccnc5[nH]4)c3c2)c1` [Compound 62, N-((5-(3-(4-(2-Fluorophenyl)-1H-pyrrolo[2,3-b]pyridin-2-yl)-1H-pyrazolo [3,4-b]pyridin-5-yl)pyridin-3-yl)methyl)ethanamine] the same measures were 0%, greater than 10 µM, 100 nM and 55%.
In experiment [1], `CC(C)(C)CC(=O)Nc1cncc(-c2cnc3[nH]nc(-c4cc5cccnc5[nH]4)c3c2)c1` [Compound 268, N-(5-(3-(1H-Pyrrolo[2,3-b]pyridin-2-yl)-1H-pyrazolo[3,4-b]pyridin-5-yl)pyridin-3-yl)-3,3-dimethylbutanamide] registered an EC50 of 0.86 µM. Besides, the Emax in experiment [2] came to 23%.
For `CN(C)Cc1cncc(-c2cnc3[nH]nc(-c4cc5c(-c6cccnc6)ccnc5[nH]4)c3c2)c1` [Compound 97, N,N-Dimethyl-1-(5-(3-(4-(pyridin-3-yl)-1H-pyrrolo[2,3-b]pyridin-2-yl)-1H-pyrazolo[3,4-b]pyridin-5-yl)pyridin-3-yl)methanamine], in experiment [1], the inhibition at 10 µM is 0% and the EC50 was greater than 10 µM. Moreover, the Emax in experiment [2] was 49%.
For `O=C(Nc1cncc(-c2cnc3[nH]nc(-c4cc5cccnc5[nH]4)c3c2)c1)c1ccccc1` [Compound 263, N-(5-(3-(1H-Pyrrolo[2,3-b]pyridin-2-yl)-1H-pyrazolo[3,4-b]pyridin-5-yl)pyridin-3-yl)benzamide], in that order: 29.7%, greater than 10 µM and 22%.
For the compound `CN1CCN(c2ccnc3[nH]c(-c4n[nH]c5ncc(-c6cn[nH]c6)cc45)cc23)CC1` [Compound 635, 3-(4-(4-Methylpiperazin-1-yl)-1H-pyrrolo[2,3-b]pyridin-2-yl)-5-(1H-pyrazol-4-yl)-1H-pyrazolo[3,4-b]pyridine], in experiment [1], the inhibition at 10 µM was determined as 5.8% and the EC50 is greater than 10 µM. Further, in experiment [2], the Emax came to 20%.
